pIC50: −log10 of the molar value.
What was measured:
Human NHE3 = target: T1, Human NHE3 (Homo sapiens, UniProt P48764); test: NHE3 activity assay (intracellular pH recovery, BCECF-AM) in human NHE3 over-expressing NHD C8 cells; format: cell-based
T1 construct: myc
T1 sequence (P48764 26-834): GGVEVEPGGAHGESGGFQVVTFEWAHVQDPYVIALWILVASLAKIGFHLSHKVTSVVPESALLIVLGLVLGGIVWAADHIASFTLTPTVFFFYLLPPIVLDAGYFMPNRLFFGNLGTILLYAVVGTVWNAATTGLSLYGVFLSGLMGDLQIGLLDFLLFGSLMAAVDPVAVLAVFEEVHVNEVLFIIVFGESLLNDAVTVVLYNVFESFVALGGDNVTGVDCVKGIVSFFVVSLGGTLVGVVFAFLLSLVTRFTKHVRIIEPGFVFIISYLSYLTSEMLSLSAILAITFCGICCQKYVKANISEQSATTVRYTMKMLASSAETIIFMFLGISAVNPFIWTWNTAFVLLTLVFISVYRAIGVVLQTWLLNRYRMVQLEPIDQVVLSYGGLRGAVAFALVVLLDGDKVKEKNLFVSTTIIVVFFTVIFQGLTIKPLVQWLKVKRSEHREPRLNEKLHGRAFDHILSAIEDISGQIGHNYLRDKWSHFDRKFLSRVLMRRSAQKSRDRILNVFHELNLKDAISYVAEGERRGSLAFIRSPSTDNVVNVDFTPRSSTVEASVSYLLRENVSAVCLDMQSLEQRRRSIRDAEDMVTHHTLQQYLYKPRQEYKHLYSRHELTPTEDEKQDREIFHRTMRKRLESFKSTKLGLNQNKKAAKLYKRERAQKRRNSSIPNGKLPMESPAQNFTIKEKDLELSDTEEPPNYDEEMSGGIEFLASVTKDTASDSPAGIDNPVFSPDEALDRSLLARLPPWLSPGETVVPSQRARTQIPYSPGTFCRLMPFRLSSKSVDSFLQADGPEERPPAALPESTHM
From the text: Sodium hydrogen exchanger activity specific to NHE3 was achieved by overexpressing human NHE3 in an endogenously NHE-deficient cell line generated by chemical-induced mutagenesis. After the mutagenesis, NHE-deficient cells were selected by loading lithium into the cells and then exposing them to an acidic extracellular environment. Under these conditions, NHE exchanges intracellular lithium for extracellular protons, thus only NHE-deficient cells can avoid a toxic intracellular acidosis and survive. Dede cells (ATCC ccl-39), grown to 50% confluence in McCoy’s 5A medium (GE Healthcare) with 10% FBS and antibiotic/antimycotic solution (GE Healthcare) in a T75 flask, were treated with 500 μg/mL of EMS (ethyl methanesulfonate, Sigma-Aldrich) in medium for 20 hours for mutagenesis and washed twice with phosphate buffered saline (PBS). The cells were then trypsinized, plated in two T175 flasks and cultured in fresh medium without EMS for 2 days. […] The intracellular pH change is then measured by an intracellular pH-sensitive dye, 2’,7’-Bis-(2-carboxyethyl)-5(and-6)-carboxyfluorescein, acetoxymethyl ester (BCECF-AM, ThermoFisher Scientific) upon reintroduction of sodium. […] The plate was immediately read for fluorescence at the excitation wavelength of 505 nm and the emission wavelength of 550 nm using a kinetic method by Molecular Device, SpectraMax i3. […]

[1] = tested on: Madin-Darby Canine Kidney (MDCK) cell; test: MDCK cell uni-directional permeability assay; format: in vitro ADME; conditions: 20 µM, one hour, 24-well format
Procedure: LY3304000 has very low in vitro cell permeability. In a standard Madin-Darby Canine Kidney (MDCK) cell uni-directional permeability assay, measuring the percentage A to B (% A-B) transport in a 24-well format, the % A-B of LY330400 transport is 0.16 % at 20 µM for the assay duration of one hour.

SMILES: CN1Cc2c(Cl)cc(Cl)cc2[C@H](c2cccc(S(=O)(=O)NCCOCCOCCN/C(=N\C(N)=O)NCCCCN/C(=N/C(N)=O)NCCOCCOCCNS(=O)(=O)c3cccc([C@@H]4CN(C)Cc5c(Cl)cc(Cl)cc54)c3)c2)C1.Cl.Cl [LY3304000, (Z)-[[4-[[(Z)-N’-carbamoyl-N-[2-[2-[2-[[3-[(4S)-6,8-dichloro-2-methyl-3,4-dihydro-1H-isoquinolin-4-yl]phenyl]sulfonylamino]ethoxy]ethoxy]ethyl]carbamimidoyl]amino]butylamino]-[2-[2-[2-[[3-[(4S)-6,8-dichloro-2-methyl-3,4-dihydro-1H-isoquinolin-4-yl]phenyl]sulfonylamino]ethoxy]ethoxy]ethylamino]methylene]urea dihydrochloride]
- slope of the concentration-response curve (Human NHE3; 4-parameter fit, representative curve): 0.8
- pIC50 (Human NHE3; geometric mean of individual IC50, n=7): 8.24
- percentage A to B (% A-B) transport [1]: 0.16%

Reference: article PMC10817170, “Effect of an NHE3 inhibitor in combination with an NPT2b inhibitor on gastrointestinal phosphate absorption in Rodent models” (PLOS ONE, 2024)
